This note sets out measurements from patent US20260285853A1, “COMPOUNDS AND METHODS FOR MODULATING SPLICING” (REMIX THERAPEUTICS INC., priority 2023, published 2026).

Molecules are shown by their SMILES.

Common to all, as to format: cell-based
One assay deals with MYB mRNA. The assay is described as follows: Gene panel canonical junction qPCR assay, decrease in CJ mRNA, Table 3. The following applies: decrease in canonical junction (CJ) mRNA, gene panel qPCR, Table 3. An outline of the steps:
(§1)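 Canonical exon-junction (CJ) transcript measured by 5′ nuclease RT-qPCR, normalized to GAPDH, GUSB or PPIA and to DMSO control (2^(−ΔΔCt)). A673 or K562 cells treated 24 h at 37° C with an 11-point 3-fold dilution series, top 10 uM, DMSO ≤0.25%. IC50 from 4-parameter logistic fit of percentage CJ decrease.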

For a further assay, the system named is HTT mRNA. The description is as above. To be noted: decrease in canonical junction (CJ) mRNA, gene panel qPCR, Table 3. In outline: as §1
A further assay relates to SMN2 mRNA. The assay is described as above. To be noted: decrease in canonical junction (CJ) mRNA, gene panel qPCR, Table 3. An outline of the steps: as §1
Background: In qPCR the cycle at which signal appears reflects the starting amount.

The subject of assay [1] is SH-SY5Y (human neuroblastoma) cells. Nature of the assay: Cell viability, Cell Titer Glo 2.0 assay. The following applies: read-out: Viability SHSY5Y.3 GI50. In outline: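 SH-SY5Y cells were exposed to serially diluted compounds in IMDM with 10% FBS and 0.1% DMSO for 72 hours at 37° C., 5% CO2. Viability was measured by CellTiter-Glo 2.0 luminescence, with medium-only wells as blank.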
On the technique in general: Cellular ATP, detected with luciferase, serves as a proxy for viable cell number.

Usually IC50 stands for the concentration needed to halve the response being measured. A higher IC50 goes with weaker potency in that assay. Usually GI50 stands for the concentration giving 50% growth inhibition. Take `CN[C@H]1C[C@@H](C)N(c2ccc(C(=O)Nc3cc(F)c4nc(C)cn4c3)c3nn(C)cc23)C1` (single isomer, unassigned) [Compound 128]: the values for the IC50 in the assay with MYB mRNA, in the assay with HTT mRNA and in the assay on SMN2 mRNA were 100 to 1000 nM, 100 to 1000 nM and less than 100 nM, respectively. Further, in assay [1], the 50% growth inhibitory concentration (GI50) was 1000 to 10000 nM.

On to `CN[C@H]1CCN(c2ccc(C(=O)Nc3cc(F)c4nc(C)cn4c3)c3nn(C)cc23)[C@H]1C` (single isomer, unassigned) [Compound 152], for which the results for the concentration for half-maximal inhibition (IC50) in the assay on MYB mRNA, in the assay with HTT mRNA and with SMN2 mRNA were 1000 to 10000 nM, more than 10000 nM and 100 to 1000 nM, respectively. The 50% growth inhibitory concentration (GI50) in assay [1] was more than 10000 nM.

Consider `CN[C@@H]1CCN(c2ccc(C(=O)Nc3cc(F)c4nc(C)cn4c3)c3nn(C)cc23)[C@@H]1C` (single isomer, unassigned) [Compound 153], for which the results for the IC50 with MYB mRNA, in the assay with HTT mRNA and in the assay on SMN2 mRNA were less than 100 nM, 100 to 1000 nM and less than 100 nM, respectively. Besides, the 50% growth inhibitory concentration (GI50) in assay [1] fell in the range of 100 to 1000 nM.

On to `CN[C@H]1CCN(c2ccc(C(=O)Nc3cc(F)c4nc(C)cn4c3)c3nn(C)cc23)[C@@H]1C` (single isomer, unassigned) [Compound 154], for which the figures for the IC50 in the assay on MYB mRNA, in the assay on HTT mRNA and in the assay with SMN2 mRNA were 100 to 1000 nM, more than 10000 nM and less than 100 nM, respectively. The 50% growth inhibitory concentration (GI50) in assay [1] fell in the range of 100 to 1000 nM.

Turning to `COCCN[C@@H]1CCN(c2ccc(C(=O)Nc3cc(F)c4nc(C)cn4c3)c3nn(C)cc23)C1` [Compound 113, N-(8-fluoro-2-methyl-imidazo[1,2-a]pyridin-6-yl)-4-[(3R)-3-(2-methoxyethylamino)pyrrolidin-1-yl]-2-methyl-indazole-7-carboxamide], the results for the IC50 in the assay with MYB mRNA, with HTT mRNA and with SMN2 mRNA were 100 to 1000 nM, more than 10000 nM and less than 100 nM, respectively. Also, the GI50 in assay [1] is 1000 to 10000 nM.

Take `COCC1(N[C@H]2CCN(c3ccc(C(=O)Nc4cc(F)c5nc(C)cn5c4)c4nn(C)cc34)C2)CC1` [Compound 118, (S)—N-(8-fluoro-2-methylimidazo[1,2-a]pyridin-6-yl)-4-(3-((1-(methoxymethyl)cyclopropyl)amino)pyrrolidin-1-yl)-2-methyl-2H-indazole-7-carboxamide]: the half-maximal inhibitory concentration (IC50) lay within 1000 to 10000 nM with MYB mRNA, 1000 to 10000 nM with HTT mRNA and 100 to 1000 nM in the assay on SMN2 mRNA. In addition, the concentration for 50% growth inhibition (GI50) in assay [1] is more than 10000 nM.

Turning to `COCC1(N[C@@H]2CCN(c3ccc(C(=O)Nc4cc(F)c5nc(C)cn5c4)c4nn(C)cc34)C2)CC1` [Compound 119, (R)—N-(8-fluoro-2-methylimidazo[1,2-a]pyridin-6-yl)-4-(3-((1-(methoxymethyl)cyclopropyl)amino)-pyrrolidin-1-yl)-2-methyl-2H-indazole-7-carboxamide], the half-maximal inhibitory concentration (IC50) was in the range of 100 to 1000 nM in the assay with MYB mRNA, 1000 to 10000 nM in the assay with HTT mRNA and 100 to 1000 nM in the assay on SMN2 mRNA. Besides, the GI50 in assay [1] is 1000 to 10000 nM.

For the compound `CN[C@@H]1C[C@@H](C)N(c2ccc(C(=O)Nc3cc(F)c4nc(C)cn4c3)c3nn(C)cc23)C1` [Compound 129, N-(8-fluoro-2-methyl-imidazo[1,2-a]pyridin-6-yl)-2-methyl-4-[(2R,4R)-2-methyl-4-(methylamino)pyrrol-idin-1-yl]indazole-7-carboxamide], the IC50 in the assay with MYB mRNA was 100 to 1000 nM; in the assay with HTT mRNA, 1000 to 10000 nM; in the assay with SMN2 mRNA, less than 100 nM. Also, the 50% growth inhibitory concentration (GI50) in assay [1] lay within 1000 to 10000 nM.

Take `CCN[C@@H]1CCN(c2cc(O)c(C(=O)Nc3cc(F)c4nc(C)cn4c3)c3nn(C)cc23)C1` [Compound 144, 4-[3-(ethylamino)pyrrolidin-1-yl]-N-(8-fluoro-2-methyl-imidazo[1,2-a]pyridin-6-yl)-6-hydroxy-2-methyl-indazole-7-carboxamide]: the results for the IC50 with MYB mRNA, with HTT mRNA and in the assay with SMN2 mRNA were less than 100 nM, more than 10000 nM and less than 100 nM, respectively. Besides, the GI50 in assay [1] lay within 100 to 1000 nM.

As for `CN[C@H]1CCN(c2c(O)cc(C(=O)Nc3cc(F)c4nc(C)cn4c3)c3nn(C)cc23)C1` [Compound 149, N-(8-fluoro-2-methyl-imidazo[1,2-a]pyridin-6-yl)-5-hydroxy-2-methyl-4-[(3S)-3-(methylamino)pyrrolidin-1-yl]-indazole-7-carboxamide], the values for the IC50 with MYB mRNA, in the assay with HTT mRNA and with SMN2 mRNA were 1000 to 10000 nM, 1000 to 10000 nM and 100 to 1000 nM, respectively. In assay [1], the GI50 was in the range of 1000 to 10000 nM.

Turning to `CN[C@@H]1CCN(c2ccc(C(=O)Nc3cc(F)c4nc(C)cn4c3)c3nn(C)cc23)[C@H]1C` [Compound 155, N-(8-fluoro-2-methylimidazo-[1,2-a]pyridin-6-yl)-2-methyl-4-[(2S,3R)-2-methyl-3-(methylamino)-pyrrolidin-1-yl]indazole-7-carboxamide], the IC50 with MYB mRNA was 1000 to 10000 nM; with HTT mRNA it was more than 10000 nM; with SMN2 mRNA it was 1000 to 10000 nM. Besides, the GI50 in assay [1] is 100 to 1000 nM.

Regarding `Cc1cn2cc(NC(=O)c3c(F)cc(N4CC[C@H](NCC56CC(CO5)C6)C4)c4cn(C)nc34)cc(F)c2n1` [Compound 157, 6-fluoro-N-(8-fluoro-2-methyl-imidazo[1,2-a]pyridin-6-yl)-2-methyl-4-[(3S)-3-(2-oxabicyclo[2.1.1]hexan-1-ylmethylamino)pyrrolidin-1-yl]indazole-7-carboxamide], the half-maximal inhibitory concentration (IC50) was 100 to 1000 nM in the assay with MYB mRNA, more than 10000 nM in the assay with HTT mRNA and less than 100 nM with SMN2 mRNA. Besides, the GI50 in assay [1] lay within 1000 to 10000 nM.

For the compound `CN[C@H]1CCN(c2ccc(C(=O)Nc3cc(F)c4nc(C)cn4c3)c3c2nnn3C)C1` [Compound 160, N-(8-fluoro-2-methyl-imidazo[1,2-a]pyridin-6-yl)-3-methyl-7-[(3S)-3-(methylamino)-pyrrolidin-1-yl]benzotriazole-4-carboxamide], the IC50 in the assay with MYB mRNA, with HTT mRNA and in the assay with SMN2 mRNA was more than 10000 nM in each case. In assay [1], the GI50 is more than 10000 nM.

In the case of `CN[C@H]1CCN(c2ccc(C(=O)Nc3cc(F)c4nc(C)cn4c3)c3nn(C)nc23)C1` [Compound 163, (S)-N-(8-fluoro-2-methylimidazo-[1,2-a]pyridin-6-yl)-2-methyl-7-(3-(methylamino)pyrrolidin-1-yl)-2H-benzo[d]-[1,2,3]triazole-4-carboxamide], the IC50 in the assay with MYB mRNA is 100 to 1000 nM; in the assay on HTT mRNA, 100 to 1000 nM; in the assay on SMN2 mRNA, less than 100 nM. Also, the GI50 in assay [1] fell in the range of 100 to 1000 nM.

Consider `CN[C@H]1CCN(c2ccc(C(=O)Nc3cc(F)c4nc(C)cn4c3)c3nnn(C)c23)C1` [Compound 166, (S)-N-(8-fluoro-2-methylimidazo-[1,2-a]pyridin-6-yl)-1-methyl-7-(3-(methylamino)pyrrolidin-1-yl)-1H-benzo[d]-[1,2,3]triazole-4-carboxamide], for which the IC50 in the assay with MYB mRNA was 100 to 1000 nM; in the assay with HTT mRNA, more than 10000 nM; with SMN2 mRNA it was less than 100 nM. Moreover, the GI50 in assay [1] was in the range of 1000 to 10000 nM.

Consider `CCNC1CCN(c2ccc(C(=O)Nc3cc(OC)c4nc(C)cn4c3)c3nn(C)cc23)CC1` [Compound 175, 4-(4-(ethylamino)piperidin-1-yl)-N-(8-methoxy-2-methyl-imidazo-[1,2-a]pyridin-6-yl)-2-methyl-2H-indazole-7-carboxamide], for which the results for the concentration for half-maximal inhibition (IC50) with MYB mRNA, in the assay with HTT mRNA and with SMN2 mRNA were 100 to 1000 nM, 100 to 1000 nM and less than 100 nM, respectively. Besides, in assay [1], the GI50 is 1000 to 10000 nM.

Regarding `CCNC1CCN(c2ccc(C(=O)Nc3ccc4nc(C)cn4c3)c3nn(C)cc23)CC1` [Compound 176, 4-[4-(ethylamino)-1-piperidyl]-2-methyl-N-(2-methylimidazo[1,2-a]pyridin-6-yl)-indazole-7-carboxamide], the IC50 in the assay with MYB mRNA was 100 to 1000 nM; with HTT mRNA, 1000 to 10000 nM; with SMN2 mRNA, less than 100 nM. Further, in assay [1], the GI50 fell in the range of 100 to 1000 nM.

As to `CCNC1CCN(c2ccc(C(=O)Nc3cc(F)c4nc(C(C)C)cn4c3)c3nn(C)cc23)CC1` [Compound 177, 4-[4-(ethylamino)-1-piperidyl]-N-(8-fluoro-2-isopropyl-imidazo[1,2-a]pyridin-6-yl)-2-methyl-indazole-7-carboxamide], the figures for the IC50 with MYB mRNA, in the assay on HTT mRNA and in the assay with SMN2 mRNA were more than 10000 nM, 1000 to 10000 nM and more than 10000 nM, respectively. In addition, in assay [1], the GI50 is 100 to 1000 nM.

Regarding `CCNC1CCN(c2ccc(C(=O)Nc3cc4cn(C)nc4cc3OC)c3[nH]ccc23)CC1` [Compound 178, 4-[4-(ethylamino)-1-piperidyl]-N-(6-methoxy-2-methyl-indazol-5-yl)-1H-indole-7-carboxamide], the IC50 was more than 10000 nM in the assay with MYB mRNA, more than 10000 nM with HTT mRNA and 1000 to 10000 nM in the assay with SMN2 mRNA. For the same compound, the 50% growth inhibitory concentration (GI50) in assay [1] fell in the range of 1000 to 10000 nM.

As for `CNC1(C)CCN(c2cc(F)c(C(=O)Nc3cc(F)c4nc(C)cn4c3)c3nn(C)cc23)CC1` [Compound 179, 6-fluoro-N-(8-fluoro-2-methyl-imidazo[1,2-a]pyridin-6-yl)-2-methyl-4-[4-methyl-4-(methylamino)-1-piperidyl]indazole-7-carboxamide], the IC50 in the assay with MYB mRNA, with HTT mRNA and in the assay with SMN2 mRNA was less than 100 nM throughout. Further, the GI50 in assay [1] is less than 100 nM.

For `CNC1(C)CCN(c2cc(F)c(C(=O)Nc3cn4cc(C)nc4c(F)c3OC)c3nn(C)cc23)CC1` [Compound 180, 6-fluoro-N-(8-fluoro-7-methoxy-2-methyl-imidazo[1,2-a]pyridin-6-yl)-2-methyl-4-[4-methyl-4-(methylamino)-1-piperidyl]indazole-7-carboxamide], the IC50 in the assay on MYB mRNA, in the assay with HTT mRNA and in the assay with SMN2 mRNA was less than 100 nM in each case. For the same compound, in assay [1], the GI50 was less than 100 nM.

`CCNC1CCN(c2ccc(C(=O)Nc3cn4cc(C)nc(C)c4n3)c3nn(C)cc23)CC1` [Compound 181, N-(6,8-dimethylimidazo [1,2-a]pyrazin-2-yl)-4-[4-(ethylamino)-1-piperidyl]-2-methyl-indazole-7-carboxamide]: the half-inhibitory concentration (IC50) was 100 to 1000 nM in the assay on MYB mRNA, 100 to 1000 nM in the assay on HTT mRNA and less than 100 nM in the assay with SMN2 mRNA. Further, in assay [1], the GI50 is 100 to 1000 nM.
